{
  "source": "the Deep4Chem optical property database",
  "test": "solvent given as SMILES",
  "data": [
    {"smiles": "CCCCCCNC(=O)c1sc(-c2ccc(-c3cc(-c4ccc(C(C)(C)C)cc4)c(C(=O)NCCCCCC)s3)s2)cc1-c1ccc(C(C)(C)C)cc1", "values": [
      {"measurement": "absorption maximum", "setting": "in ClCCl", "value": 392, "unit": "nm"}
    ]},
    {"smiles": "N#CC(C#N)=Cc1cn(-c2ccccc2)nc1-c1ccccc1", "values": [
      {"measurement": "absorption maximum", "setting": "in C1CCOC1", "value": 354, "unit": "nm"},
      {"measurement": "absorption maximum", "setting": "in C1COCCO1", "value": 353, "unit": "nm"},
      {"measurement": "absorption maximum", "setting": "in CCO", "value": 354, "unit": "nm"},
      {"measurement": "absorption maximum", "setting": "in CCOC(C)=O", "value": 352, "unit": "nm"},
      {"measurement": "absorption maximum", "setting": "in CN(C)C=O", "value": 355, "unit": "nm"},
      {"measurement": "absorption maximum", "setting": "in CO", "value": 351, "unit": "nm"},
      {"measurement": "absorption maximum", "setting": "in CS(C)=O", "value": 356, "unit": "nm"},
      {"measurement": "absorption maximum", "setting": "in Cc1ccccc1", "value": 361, "unit": "nm"},
      {"measurement": "absorption maximum", "setting": "in ClC(Cl)Cl", "value": 359, "unit": "nm"},
      {"measurement": "absorption maximum", "setting": "in ClCCl", "value": 357, "unit": "nm"}
    ]},
    {"smiles": "CN(c1ccccc1)c1ccc(-c2ccc(-c3ccc(N(C)c4ccccc4)cc3)c3nc(-c4ccccc4)c(-c4ccccc4)nc23)cc1", "values": [
      {"measurement": "absorption maximum", "setting": "in ClC(Cl)Cl", "value": 476, "unit": "nm"}
    ]},
    {"smiles": "CC1=[N+]2C(=C(c3c4ccccc4c(-c4ccccc4)c4ccccc34)c3ccc(C)n3[B-]2(F)F)C=C1", "values": [
      {"measurement": "absorption maximum", "setting": "in CC#N", "value": 514, "unit": "nm"},
      {"measurement": "absorption maximum", "setting": "in CCCCCC", "value": 516, "unit": "nm"},
      {"measurement": "absorption maximum", "setting": "in CCO", "value": 516, "unit": "nm"},
      {"measurement": "absorption maximum", "setting": "in CN(C)C=O", "value": 517, "unit": "nm"},
      {"measurement": "absorption maximum", "setting": "in Cc1ccccc1", "value": 519, "unit": "nm"},
      {"measurement": "absorption maximum", "setting": "in ClCCl", "value": 518, "unit": "nm"}
    ]},
    {"smiles": "CN(C)c1cccc2c1-c1ccccc1C2=O", "values": [
      {"measurement": "absorption maximum", "setting": "in C1CCCCC1", "value": 412, "unit": "nm"},
      {"measurement": "absorption maximum", "setting": "in CC#N", "value": 439, "unit": "nm"},
      {"measurement": "absorption maximum", "setting": "in CCO", "value": 438, "unit": "nm"},
      {"measurement": "absorption maximum", "setting": "in c1ccccc1", "value": 433, "unit": "nm"}
    ]},
    {"smiles": "N#Cc1ccc(-c2cn3cc(C#N)c[n+]3[n-]2)cc1", "values": [
      {"measurement": "absorption maximum", "setting": "in ClCCl", "value": 360, "unit": "nm"}
    ]},
    {"smiles": "CC1(C)c2ccccc2-c2sc3ccccc3c21", "values": [
      {"measurement": "absorption maximum", "setting": "in ClCCl", "value": 330, "unit": "nm"}
    ]},
    {"smiles": "CN(C)c1ccc2nc(/C=C/c3ccccc3)c(=O)oc2c1", "values": [
      {"measurement": "absorption maximum", "setting": "in C1CCCCC1", "value": 438.5, "unit": "nm"},
      {"measurement": "absorption maximum", "setting": "in C1COCCO1", "value": 453, "unit": "nm"},
      {"measurement": "absorption maximum", "setting": "in CC#N", "value": 463, "unit": "nm"},
      {"measurement": "absorption maximum", "setting": "in CC(C)=O", "value": 462, "unit": "nm"},
      {"measurement": "absorption maximum", "setting": "in CCCCCCC", "value": 436, "unit": "nm"},
      {"measurement": "absorption maximum", "setting": "in CCO", "value": 466, "unit": "nm"},
      {"measurement": "absorption maximum", "setting": "in CCOC(C)=O", "value": 457, "unit": "nm"},
      {"measurement": "absorption maximum", "setting": "in CN(C)C=O", "value": 469, "unit": "nm"},
      {"measurement": "absorption maximum", "setting": "in CS(C)=O", "value": 475, "unit": "nm"},
      {"measurement": "absorption maximum", "setting": "in Cc1ccccc1", "value": 459.5, "unit": "nm"},
      {"measurement": "absorption maximum", "setting": "in ClC(Cl)Cl", "value": 467, "unit": "nm"},
      {"measurement": "absorption maximum", "setting": "in ClCCl", "value": 467.5, "unit": "nm"}
    ]},
    {"smiles": "CCOC(=O)c1c(-c2cc3ccccc3oc2=O)nn(-c2ccc(OC)cc2)c1C(=O)OCC", "values": [
      {"measurement": "absorption maximum", "setting": "in ClCCl", "value": 323, "unit": "nm"}
    ]},
    {"smiles": "c1ccc(-c2nc(-c3ccc(N4c5ccccc5C(c5ccccc5)(c5ccccc5)c5ccccc54)cc3)cc(-c3ccccn3)n2)cc1", "values": [
      {"measurement": "absorption maximum", "setting": "in Cc1ccccc1", "value": 371.33, "unit": "nm"}
    ]},
    {"smiles": "Cc1ccc2sc3cc(CCC(=O)O)ccc3c(=O)c2c1", "values": [
      {"measurement": "absorption maximum", "setting": "in CC#N", "value": 401, "unit": "nm"},
      {"measurement": "absorption maximum", "setting": "in CO", "value": 402, "unit": "nm"}
    ]},
    {"smiles": "COc1ccc(-n2c(-c3ccc(-c4cncc5ccccc45)cc3)nc3c4ccccc4c4ccccc4c32)cc1", "values": [
      {"measurement": "absorption maximum", "setting": "in C1CCOC1", "value": 365, "unit": "nm"}
    ]},
    {"smiles": "CC(C)(C)c1ccc(C(C)(C)C)c(N2C(=O)c3cccc4c(-c5ccc(-c6ccc([N+](=O)[O-])cc6)s5)ccc(c34)C2=O)c1", "values": [
      {"measurement": "absorption maximum", "setting": "in CO", "value": 393, "unit": "nm"},
      {"measurement": "absorption maximum", "setting": "in CS(C)=O", "value": 400, "unit": "nm"},
      {"measurement": "absorption maximum", "setting": "in Cc1ccccc1", "value": 392, "unit": "nm"}
    ]},
    {"smiles": "CCOC(=O)c1ccc(C2=Cc3ccccc3P2(=O)c2ccccc2)cc1", "note": "(stereo unspecified)", "values": [
      {"measurement": "absorption maximum", "setting": "in ClCCl", "value": 353, "unit": "nm"}
    ]},
    {"smiles": "COc1ccc2cc(/C=C/C3=C4CCc5ccccc5C4=[O+][B-](F)(F)O3)ccc2c1", "values": [
      {"measurement": "absorption maximum", "setting": "in ClCCl", "value": 479, "unit": "nm"}
    ]},
    {"smiles": "CCCC1=Cc2nc1ccc1[nH]c(cc1CCC)c1nc(c(OC(=O)CCCNC(=O)OC(C)(C)C)cc3[nH]c2cc3CCC)C(CCC)=C1", "values": [
      {"measurement": "absorption maximum", "setting": "in Cc1ccccc1", "value": 645, "unit": "nm"}
    ]},
    {"smiles": "CCCCCCn1c2cc(C=C(C#N)C#N)sc2c2sc3c(sc4c5sc(C=C(C#N)C#N)cc5n(CCCCCC)c43)c21", "values": [
      {"measurement": "absorption maximum", "setting": "in ClCCl", "value": 588, "unit": "nm"}
    ]},
    {"smiles": "COc1cc(N2CCOCCOCCN(c3cc(OC)c(NC(=O)c4ccc(-c5c6cc(Cl)c(=O)cc-6oc6cc([O-])c(Cl)cc56)c(C(=O)[O-])c4)cc3OC)CCOCC2)c(OC)cc1NC(=O)c1ccc(-c2c3cc(Cl)c(=O)cc-3oc3cc([O-])c(Cl)cc23)c(C(=O)[O-])c1", "values": [
      {"measurement": "absorption maximum", "setting": "in O", "value": 507, "unit": "nm"}
    ]},
    {"smiles": "CCC1=C(C)C(=O)n2c1cc1c(C)c(CCC(=O)OC)c(C)n1c2=O", "values": [
      {"measurement": "absorption maximum", "setting": "in CC#N", "value": 420, "unit": "nm"},
      {"measurement": "absorption maximum", "setting": "in CC(C)=O", "value": 420, "unit": "nm"},
      {"measurement": "absorption maximum", "setting": "in CO", "value": 424, "unit": "nm"},
      {"measurement": "absorption maximum", "setting": "in CS(C)=O", "value": 425, "unit": "nm"},
      {"measurement": "absorption maximum", "setting": "in ClC(Cl)Cl", "value": 427, "unit": "nm"},
      {"measurement": "absorption maximum", "setting": "in c1ccccc1", "value": 420, "unit": "nm"}
    ]},
    {"smiles": "c1ccc(-c2ccc3c(c2)c2cc(-c4ccccc4)ccc2n3-c2ccc3c(c2)c2cc(-n4c5ccc(-c6ccccc6)cc5c5cc(-c6ccccc6)ccc54)ccc2n3-c2ccc(-c3nc(-c4ccccc4)nc(-c4ccccc4)n3)cc2)cc1", "values": [
      {"measurement": "absorption maximum", "setting": "in Cc1ccccc1", "value": 362, "unit": "nm"}
    ]}
  ]
}
